# Assay results: ChEMBL document CHEMBL3217466, “Synthesis and biological activity of hydroxybenzylidenyl pyrrolidine-2,5-dione derivatives as new potent inhibitors of tyrosinase” (Medchemcomm, 2011)
# What was measured:
# [1] = biological target: T1, Tyrosinase (Mus musculus) (UniProt P11344); experiment: Inhibition of tyrosinase in mouse B16F10 cells assessed as rate of L-DOPA oxidation at 0.2 uM after 24 hrs by ELISA in presence of alpha-MSH (reference value: […]%); assay type: cell-based; design: scale not given: the % may be the effect or the level left; conditions: B16-F10
# T1 sequence (whole entry): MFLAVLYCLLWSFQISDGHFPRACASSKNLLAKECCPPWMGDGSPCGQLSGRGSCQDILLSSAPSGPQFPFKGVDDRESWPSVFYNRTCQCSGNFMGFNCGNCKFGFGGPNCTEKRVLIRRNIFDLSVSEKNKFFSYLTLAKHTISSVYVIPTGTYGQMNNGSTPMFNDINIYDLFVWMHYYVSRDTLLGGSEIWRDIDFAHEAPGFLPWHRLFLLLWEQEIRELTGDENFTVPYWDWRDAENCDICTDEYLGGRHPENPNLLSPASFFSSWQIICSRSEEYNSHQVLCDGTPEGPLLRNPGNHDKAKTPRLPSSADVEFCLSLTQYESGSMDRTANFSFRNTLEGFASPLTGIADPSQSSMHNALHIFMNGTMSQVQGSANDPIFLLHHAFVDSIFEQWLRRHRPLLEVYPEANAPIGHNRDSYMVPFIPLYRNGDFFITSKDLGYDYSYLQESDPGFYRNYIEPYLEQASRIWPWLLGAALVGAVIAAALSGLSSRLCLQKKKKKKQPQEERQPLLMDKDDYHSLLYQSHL
# Tyrosinase [2] = biological target: T2, Tyrosinase (Agaricus bisporus, UniProt O42713); experiment: Competitive inhibition of mushroom tyrosinase assessed as decrease in rate of dopachrome formation using L-tyrosine as substrate at 1.25 uM by Lineweaver-Burk plot analysis
# T2 sequence (O42713 whole entry): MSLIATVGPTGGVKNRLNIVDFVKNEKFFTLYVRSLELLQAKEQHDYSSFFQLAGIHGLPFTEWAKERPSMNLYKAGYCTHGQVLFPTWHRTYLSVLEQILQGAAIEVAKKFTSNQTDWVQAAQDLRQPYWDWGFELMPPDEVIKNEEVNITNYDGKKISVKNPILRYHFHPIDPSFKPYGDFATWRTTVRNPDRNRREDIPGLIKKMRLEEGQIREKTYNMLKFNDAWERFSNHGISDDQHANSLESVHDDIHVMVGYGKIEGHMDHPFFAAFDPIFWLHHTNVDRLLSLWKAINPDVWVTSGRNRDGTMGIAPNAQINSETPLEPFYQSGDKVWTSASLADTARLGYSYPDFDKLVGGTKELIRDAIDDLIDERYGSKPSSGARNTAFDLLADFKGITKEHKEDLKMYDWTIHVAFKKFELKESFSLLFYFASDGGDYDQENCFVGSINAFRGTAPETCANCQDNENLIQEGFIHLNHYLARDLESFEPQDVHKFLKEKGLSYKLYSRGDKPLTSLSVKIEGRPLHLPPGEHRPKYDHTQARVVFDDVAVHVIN
# [3] = biological target: T1, Tyrosinase (Mus musculus); experiment: Inhibition of tyrosinase in mouse B16F10 cells assessed as rate of L-DOPA oxidation at 10 uM after 24 hrs by ELISA in presence of alpha-MSH (reference value: […]%); assay type: cell-based; design: scale not given: the % may be the effect or the level left; conditions: B16-F10
# B16-F10 [4] = experiment: Inhibition of melanogenesis in mouse B16F10 cells assessed as melanin content at 5 uM after 24 hrs in presence of alpha-MSH (reference value: 241.87%); assay type: functional; design: scale not given: the % may be the effect or the level left
# [5] = Cytotoxicity against mouse B16F10 cells assessed as cell viability at 1 uM after 48 hrs by MTT assay; assay type: cell-based, B16-F10; conditions: read-out: Activity
# B16-F10 [6] = experiment: Inhibition of melanogenesis in mouse B16F10 cells assessed as melanin content at 2.5 uM after 24 hrs in presence of alpha-MSH (reference value: 241.87%); assay type: functional; design: scale not given: the % may be the effect or the level left
# Tyrosinase [7] = biological target: T2, Tyrosinase; experiment: Inhibition of mushroom tyrosinase assessed as decrease in dopachrome production using L-tyrosine as substrate by spectrophotometric analysis
# B16-F10 [8] = experiment: Inhibition of melanogenesis in mouse B16F10 cells assessed as melanin content at 0.2 uM after 24 hrs in presence of alpha-MSH (reference value: 241.87%); assay type: functional; design: scale not given: the % may be the effect or the level left
# [9] = biological target: T1, Tyrosinase (Mus musculus); experiment: Inhibition of tyrosinase in mouse B16F10 cells assessed as rate of L-DOPA oxidation at 5 uM after 24 hrs by ELISA in presence of alpha-MSH (reference value: […]%); assay type: cell-based; design: scale not given: the % may be the effect or the level left; conditions: B16-F10
# B16-F10 [10] = experiment: Inhibition of melanogenesis in mouse B16F10 cells assessed as melanin content at 10 uM after 24 hrs in presence of alpha-MSH (reference value: 241.87%); assay type: functional; design: scale not given: the % may be the effect or the level left
# [11] = biological target: T1, Tyrosinase (Mus musculus); experiment: Inhibition of tyrosinase in mouse B16F10 cells assessed as rate of L-DOPA oxidation at 2.5 uM after 24 hrs by ELISA in presence of alpha-MSH (reference value: […]%); assay type: cell-based; design: scale not given: the % may be the effect or the level left; conditions: B16-F10
# B16-F10 [12] = experiment: Inhibition of melanogenesis in mouse B16F10 cells assessed as decrease in melanin content after 24 hrs in presence of alpha-MSH; assay type: functional, cell-based
# [13] = Cytotoxicity against mouse B16F10 cells assessed as cell viability at 0.2 uM after 48 hrs by MTT assay; assay type: cell-based, B16-F10; conditions: read-out: Activity
# B16-F10 [14] = experiment: Inhibition of melanogenesis in mouse B16F10 cells assessed as melanin content at 1 uM after 24 hrs in presence of alpha-MSH (reference value: 241.87%); assay type: functional; design: scale not given: the % may be the effect or the level left
# [15] = Cytotoxicity against mouse B16F10 cells assessed as cell viability at 2.5 uM after 48 hrs by MTT assay; assay type: cell-based, B16-F10; conditions: read-out: Activity
# [16] = biological target: T1, Tyrosinase (Mus musculus); experiment: Inhibition of tyrosinase in mouse B16F10 cells assessed as rate of L-DOPA oxidation at 1 uM after 24 hrs by ELISA in presence of alpha-MSH (reference value: […]%); assay type: cell-based; design: scale not given: the % may be the effect or the level left; conditions: B16-F10
# [17] = Cytotoxicity against mouse B16F10 cells assessed as cell viability at 5 uM after 48 hrs by MTT assay; assay type: cell-based, B16-F10; conditions: read-out: Activity
# [18] = Cytotoxicity against mouse B16F10 cells assessed as cell viability at 10 uM after 48 hrs by MTT assay; assay type: cell-based, B16-F10; conditions: read-out: Activity
# Tyrosinase [19] = biological target: T2, Tyrosinase; experiment: Competitive inhibition of mushroom tyrosinase assessed as decrease in rate of dopachrome formation using L-tyrosine as substrate at 20 uM by Lineweaver-Burk plot analysis
structure (smiles),measurement,setting,value
COc1ccc(/C=C2\CC(=O)NC2=O)cc1O,Activity,[1],224%
same,Ki,Tyrosinase [2],424 nM
same,Activity,[3],97.1%
same,Activity,B16-F10 [4],103.74%
same,"viability at 48 h, 1 µM",[5],98.9%
same,Activity,B16-F10 [6],113.11%
same,IC50,Tyrosinase [7],2230 nM
same,Activity,B16-F10 [8],236.67%
same,Activity,[9],101%
same,Activity,B16-F10 [10],99.49%
same,Activity,[11],103%
same,inhibition,B16-F10 [12],Dose-dependent effect
same,"viability at 48 h, 0.2 µM",[13],99.5%
same,Activity,B16-F10 [14],231.69%
same,"viability at 48 h, 2.5 µM",[15],98.4%
same,Activity,[16],177%
same,"viability at 48 h, 5 µM",[17],98.1%
same,"viability at 48 h, 10 µM",[18],97.8%
same,Ki,Tyrosinase [19],1820 nM
